Measurements published in patent US20250049036A1 (priority 2021, published 2025).

Columns and labels:
Corynespora cassiicola [1] = assay: Corynespora cassiicola (leaf spot of tomato) mycelial radial growth on potato dextrose agar; assay type: cell-based; conditions: 168 h, 25° C., seven days, read-out: control compared to the untreated check
Description: The compounds were dissolved in 0.3% dimethyl sulfoxide and then added to potato dextrose agar medium just prior to dispensing it into petri dishes. 5 mL medium, with the compound in the desired concentration, was dispensed into 60 mm sterile petri-plates. After solidification, each plate was seeded with a 5 mm size mycelial disc taken from the periphery of an actively growing virulent culture plate. The plates were incubated in growth chambers at 25° C. temperature and 70% relative humidity for seven days and the radial growth was measured and compared to the one of the untreated control.

Alternaria solani [2] = assay: Alternaria solani test in tomato, preventive, greenhouse; assay type: in vivo; conditions: preventive spray on tomato, inoculated one day after treatment, read-out: control (efficacy, disease severity) compared to the untreated check
Description: (§1) The respective compound was dissolved in 2% dimethyl sulfoxide/acetone and then mixed with water containing an emulsifier to the calibrated spray volume of 30 mL. Each spray solution was poured into a spray bottle for further application.
To test the preventive activity of a compound, healthy young tomato plants, raised in the greenhouse, were sprayed with the active compound preparation at the stated application rate inside the spray cabinets using hollow cone nozzles. One day after treatment, the plants were inoculated with a spore suspension containing 0.24×10^6 Alternaria solani inoculum. The inoculated plants were then kept in a greenhouse chamber at 22-24° C. temperature and 90-95% relative humidity for disease expression.
(§2) A visual assessment of the compound's performance was carried out by rating the disease severity (0 100% scale) on treated plants 3, 7, 10 and 15 days after application. Efficacy (% control) of the compound was calculated by comparing the disease rating in the treatment with the one of the untreated control. The treated plants were also assessed for plant damage by recording symptoms like necrosis, chlorosis and stunting.

Phakopsora pachyrhizi = Phakopsora pachyrhizi test on soybean, preventive, greenhouse; assay type: in vivo; conditions: preventive spray on soybean, inoculated one day after treatment, read-out: control (efficacy, disease severity) compared to the untreated check
How it was run: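 Preventive protocol: plants inoculated with a 2×10^5 P. pachyrhizi conidial suspension one day after spray application at the stated rate, then incubated at 22-24 °C and 80-90% RH. Compound was applied from 2% DMSO/acetone diluted in emulsified water.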

Botrytis cinerea [3] = assay: Botrytis cinerea test on tomato, preventive, greenhouse; assay type: in vivo; conditions: preventive spray on bean/chili plants (heading: tomato), inoculated one day after treatment, read-out: control (efficacy, disease severity) compared to the untreated check
Alternaria solani [4] = assay: Alternaria solani (early blight of tomato/potato) mycelial radial growth on potato dextrose agar; assay type: cell-based; conditions: 168 h, 25° C., seven days, read-out: control compared to the untreated check
How it was run: (§3)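 Compounds in 0.3% DMSO were mixed into potato dextrose agar, and each plate was seeded with a 5 mm mycelial disc from an actively growing culture. Plates were incubated at 25° C and 60% relative humidity for seven days. Radial growth was compared with untreated control.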

Colletotrichum capsici = Colletotrichum capsici (anthracnose) mycelial radial growth on potato dextrose agar; assay type: cell-based; conditions: Colletotrichum truncatum, 168 h, 25° C., seven days, read-out: control compared to the untreated check
How it was run: as §3

Pyricularia oryzae = assay: microbe, parasite or virus in culture; assay type: cell-based; conditions: 168 h, read-out: control compared to the untreated check
Botrytis cinerea [5] = assay: Botrytis cinerea liq. (BOTRCI) spore growth inhibition in liquid medium, 96-well microtiter plate, OD 405 nm; assay type: cell-based; conditions: spore suspension in YBA liquid medium, 22° C., 5-6 days, OD at 405 nm, read-out: control compared to the untreated check
How it was run: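 Spore suspension of B. cinerea (10^4 spores/ml) in YBA liquid medium mixed 1:1 with compound diluted from DMSO. Incubated at 22° C. for 5-6 days. Growth read as OD 405 nm; percent inhibition derived from treatment, untreated-control and blank readings.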

Parastagonospora nodorum = Parastagonospora nodorum (PARANO) spore growth inhibition in liquid medium, 96-well microtiter plate, OD 600; assay type: cell-based; conditions: spore suspension in PDB liquid medium, 18° C., 5-6 days, OD at 600, read-out: control compared to the untreated check
How it was run: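 Read-out is percent growth inhibition from OD at 600 after 5-6 days at 18° C. Compounds, dissolved in DMSO, were diluted in potato dextrose broth and combined in equal volume with a 10^5 spores/ml suspension of PARANO.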

Venturia Inequalis = assay: Venturia inequalis (VENTIN) spore growth inhibition in liquid medium, 96-well microtiter plate, OD 600; assay type: cell-based; conditions: spore suspension in PDB liquid medium, 18° C., 15-18 days, OD at 600, read-out: control compared to the untreated check
How it was run: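 Venturia inequalis spores (10^5 spores/ml suspension) were grown in potato dextrose broth with test compounds dissolved in DMSO, mixing equal volumes of compound solution and spore suspension. Plates were incubated at 18 °C for 15–18 days. Growth was read as OD600 and converted to percent inhibition.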

Corynespora cassiicola [6] = assay: Corynespora cassiicola test on tomato, preventive, greenhouse; assay type: in vivo; conditions: 500 ppm; preventive spray on tomato, inoculated one day after treatment
Description: as §1
To test the preventive activity of a compound, healthy young tomato plants, raised in the greenhouse, were sprayed with the active compound preparation at the stated application rate inside the spray cabinets using hollow cone nozzles. One day after treatment, the plants were inoculated with a spore suspension containing 2.6×10^6 Corynespora cassiicola inoculum. The inoculated plants were then kept in a greenhouse chamber at 22-24° C. temperature and 90-95% relative humidity for disease expression.
as §2

Phytophthora infestans [7] = assay: whole plant or invertebrate; assay type: in vivo, Phytophthora infestans on tomato; conditions: in Solanum lycopersicum, read-out: control (efficacy, disease severity) compared to the untreated check
Fusarium culmorum = Fusarium culmorum test on wheat, preventive, greenhouse; assay type: in vivo; conditions: preventive spray on wheat, inoculated one day after treatment, read-out: control (efficacy, disease severity) compared to the untreated check
Description: The respective compound was dissolved in 2% dimethyl sulfoxide/acetone and then mixed with water containing an emulsifier to a calibrated spray volume of 30 mL. Each spray solution was poured into a spray bottle for further application.
To test the preventive activity of a compound, healthy young wheat plants, raised in the greenhouse, were sprayed with the active compound preparation at the stated application rate inside the spray cabinets using hollow cone nozzles. One day after the treatment, the plants were inoculated with a spore suspension containing 2×10^6 Fusarium culmorum inoculum. The inoculated plants were then kept in a greenhouse chamber at 24° C. temperature and 80-90% relative humidity for disease expression.
as §2

Phytophthora infestans [8] = assay: microbe, parasite or virus in culture; assay type: cell-based; conditions: 168 h, read-out: control compared to the untreated check
Botrytis cinerea [9] = assay: Botrytis cinerea (gray mold) mycelial radial growth on potato dextrose agar; assay type: cell-based; conditions: 168 h, 22° C., seven days, read-out: control compared to the untreated check
How it was run: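 Compounds in 0.3% DMSO were mixed into potato dextrose agar, and plates were seeded with 5 mm mycelial discs from actively growing virulent culture. After seven days at 22 °C and 90% relative humidity, radial growth was measured relative to untreated control.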

CC(C)CC(C)(Cc1ccccc1)NC(=O)c1cnc2c(ccn2C)c1 (centres unmarked) [Compound 2, N-(2,4-dimethyl-1-phenylpentan-2-yl)-1-methyl-1H-pyrrolo[2,3-b]pyridine-5-carboxamide]
≥ 70%: inhibition of growth at 300 ppm (Corynespora cassiicola [1]) | pest or weed control at 500 ppm (Alternaria solani [2]) | pest or weed control at 500 ppm (Phakopsora pachyrhizi) | pest or weed control at 500 ppm (Botrytis cinerea [3]) | inhibition of growth at 300 ppm (Alternaria solani [4]) | inhibition of growth at 300 ppm (Colletotrichum capsici) | inhibition of growth at 300 ppm (Pyricularia oryzae)

CCC(C)(Cc1ccccc1)NC(=O)c1cnc2c(ccn2C)c1 (centres unmarked) [Compound 6, 1-methyl-N-(2-methyl-1-phenylbutan-2-yl)-1H-pyrrolo[2,3-b] pyridine-5-carboxamide]
≥ 70%: inhibition of growth at 300 ppm (Corynespora cassiicola [1]) | inhibition of growth at 300 ppm (Botrytis cinerea [5]) | inhibition of growth at 300 ppm (Parastagonospora nodorum) | inhibition of growth at 300 ppm (Alternaria solani [4]) | inhibition of growth at 300 ppm (Colletotrichum capsici)

Cn1ccc2cc(C(=O)NC(C)(C)Cc3ccc(Cl)cc3)cnc21 [Compound 43, N-(1-(4-chlorophenyl)-2-methylpropan-2-yl)-1-methyl-1H-pyrrolo[2,3-b]pyridine-5-carboxamide]
≥ 70%: inhibition of growth at 300 ppm (Corynespora cassiicola [1]) | pest or weed control at 500 ppm (Phakopsora pachyrhizi) | inhibition of growth at 300 ppm (Parastagonospora nodorum) | inhibition of growth at 300 ppm (Pyricularia oryzae)

CC(c1ccccc1F)C(C)(C)NC(=O)c1cnc2c(c1)c(Cl)cn2C (centres unmarked) [Compound 64, 3-chloro-N-(3-(2-fluorophenyl)-2-methylbutan-2-yl)-1-methyl-1H-pyrrolo[2,3-b]pyridine-5-carboxamide]
≥ 70%: inhibition of growth at 300 ppm (Venturia Inequalis) | control (efficacy, disease severity) compared to the untreated check (Corynespora cassiicola [6]) | pest or weed control at 500 ppm (Phytophthora infestans [7]) | pest or weed control at 500 ppm (Phakopsora pachyrhizi) | pest or weed control at 500 ppm (Fusarium culmorum) | inhibition of growth at 300 ppm (Pyricularia oryzae)

CC(C)(C)NC(=O)c1cnc2ccsc2c1 [Compound 107, N-(tert-butyl)thieno[3,2-b] pyridine-6-carboxamide]
≥ 70%: inhibition of growth at 300 ppm (Venturia Inequalis) | inhibition of growth at 300 ppm (Corynespora cassiicola [1]) | pest or weed control at 500 ppm (Phakopsora pachyrhizi)

CC(C)(NC(=O)c1cnc2ccsc2c1)C(F)(F)F [Compound 109, N-(1,1,1-trifluoro-2-methylpropan-2-yl)thieno[3,2-b] pyridine-6-carboxamide]
≥ 70%: inhibition of growth at 300 ppm (Phytophthora infestans [8]) | inhibition of growth at 300 ppm (Corynespora cassiicola [1]) | inhibition of growth at 300 ppm (Botrytis cinerea [5]) | inhibition of growth at 300 ppm (Botrytis cinerea [9]) | inhibition of growth at 300 ppm (Parastagonospora nodorum) | inhibition of growth at 300 ppm (Alternaria solani [4]) | inhibition of growth at 300 ppm (Pyricularia oryzae)

C=C(C)CC(C)(COc1ccc(F)cc1)NC(=O)c1cnc2c(ccn2C)c1 (centres unmarked) [Compound 121, N-(1-(4-fluorophenoxy)-2,4-dimethylpent-4-en-2-yl)-1-methyl-1H-pyrrolo[2,3-b]pyridine-5-carboxamide]
≥ 70%: inhibition of growth at 300 ppm (Corynespora cassiicola [1]) | pest or weed control at 500 ppm (Fusarium culmorum) | inhibition of growth at 300 ppm (Colletotrichum capsici)

Cc1cc(F)ccc1C(=O)OCC(C)(C)NC(=O)c1cnc2c(ccn2C)c1 [Compound 125, 2-methyl-2-(1-methyl-1H-pyrrolo[2,3-b]pyridine-5-carboxamido)propyl 4-fluoro-2-methylbenzoate]
≥ 70%: inhibition of growth at 300 ppm (Corynespora cassiicola [1]) | pest or weed control at 500 ppm (Phakopsora pachyrhizi) | pest or weed control at 500 ppm (Botrytis cinerea [3])

C=C(C)CC(C)(Cc1ccccc1F)NC(=O)c1cnc2c(ccn2C)c1 (centres unmarked) [Compound 127, N-(1-(2-fluorophenyl)-2,4-dimethylpent-4-en-2-yl)-1-methyl-1H-pyrrolo[2,3-b]pyridine-5-carboxamide]
≥ 70%: inhibition of growth at 300 ppm (Venturia Inequalis) | inhibition of growth at 300 ppm (Corynespora cassiicola [1]) | pest or weed control at 500 ppm (Alternaria solani [2]) | pest or weed control at 500 ppm (Phakopsora pachyrhizi) | inhibition of growth at 300 ppm (Colletotrichum capsici)

C=C(C)CC(C)(Cc1ccccc1F)NC(=O)c1cnc2ccsc2c1 (centres unmarked) [Compound 129, N-(1-(2-fluorophenyl)-2,4-dimethylpent-4-en-2-yl)thieno[3,2-b] pyridine-6-carboxamide]
≥ 70%: inhibition of growth at 300 ppm (Corynespora cassiicola [1]) | pest or weed control at 500 ppm (Phakopsora pachyrhizi) | inhibition of growth at 300 ppm (Alternaria solani [4]) | inhibition of growth at 300 ppm (Colletotrichum capsici)
